# Biological target: CFTR-mediated chloride transport in human intestinal epithelial enteroid cells (Homo sapiens, UniProt P13569)
# Experiment: Membrane potential dye, Enteroid Assay A
# Type: cell-based
# Conditions: for Ent. A Max Activity (%): % of chloride transport of triple combination control (3 μM N-[(6-amino-2-pyridyl)sulfonyl]-6-(3-fluoro-5-isobutoxy-phenyl)-2-[(4S)-2,2,4-trimethylpyrrolidin-1-yl]pyridine-3-carboxamide, 3 μM tezacaftor, 300 nM acute ivacaftor); for EC50: enteroid cells, 18-24 hours incubation, acute 10 μM forskolin and 300 nM ivacaftor, read-out: Ent. A EC50
# Procedure: Base medium (ADF+++) consisted of Advanced DMEM/Ham's F12, 2 mM Glutamax, 10 mM HEPES, […] penicillin/streptomycin.
# Intestinal enteroid maintenance medium (IEMM) consisted of ADF+++, 1×B27 supplement, 1×N2 supplement, 1.25 mM N-acetyl cysteine, 10 mM Nicotinamide, 50 ng/mL hEGF, 10 nM Gastrin, 1 μg/mL hR-spondin-1, 100 ng/mL hNoggin, TGF-b type 1 inhibitor A-83-01, 100 μg/mL Primocin, 10 μM P38 MAPK inhibitor SB202190.
# Bath 1 Buffer consisted of 1 mM MgCl2, 160 mM NaCl, 4.5 mM KCl, 10 mM HEPES, 10 mM Glucose, 2 mM CaCl2.
# Chloride Free Buffer consisted of 1 mM Magnesium Gluconate, 2 mM Calcium Gluconate, 4.5 mM Potassium Gluconate, 160 mM Sodium Gluconate, 10 mM HEPES, 10 mM Glucose.
# Bath1 Dye Solution consisted of Bath 1 Buffer, 0.04% Pluronic F127, 20 μM Methyl Oxonol, 30 μM CaCCinh-A01, 30 μM Chicago Sky Blue.
# Chloride Free Dye Solution consisted of Chloride Free Buffer, 0.04% Pluronic F127, 20 μM Methyl Oxonol, 30 μM CaCCinh-A01, 30 μM Chicago Sky Blue.
# Chloride Free Dye Stimulation Solution consisted of Chloride Free Dye Solution, 10 μM forskolin, 100 μM IBMX, and 300 nM Compound III.
# Human intestinal epithelial enteroid cells were obtained from the Hubrecht Institute for Developmental Biology and Stem Cell Research, Utrecht, The Netherlands and expanded in T-Flasks as previously described (Dekkers J F, Wiegerinck C L, de Jonge H R, Bronsveld I, Janssens H M, de Winter-de Groot K M, Brandsma A M, de Jong N W M, Bijvelds M J C, Scholte B J, Nieuwenhuis E E S, van den Brink S, Clevers H, van der Ent C K, Middendorp S and M Beekman J M. A functional CFTR assay using primary cystic fibrosis intestinal organoids. Nat Med. 2013 July; 19(7):939-45).
# c. Enteroid Cell Harvesting and Seeding
# Cells were recovered in cell recovery solution, collected by centrifugation at 650 rpm for 5 minutes at 4° C., resuspended in TrypLE and incubated for 5 minutes at 37° C. Cells were then collected by centrifugation at 650 rpm for 5 minutes at 4° C. and resuspended in IEMM containing 10 μM ROCK inhibitor (RI). The cell suspension was passed through a 40 μm cell strainer and resuspended at 1×10^6 cells/mL in IEMM containing 10 μM RI. Cells were seeded at 5000 cells/well into multi-well plates and incubated for overnight at 37° C., 95% humidity and 5% CO2 prior to assay.
# d. Membrane Potential Dye, Enteroid Assay A
# Enteroid cells were incubated with test compound in IEMM for 18-24 hours at 37° C., 95% humidity and 5% CO2. […] Briefly, cells were washed 5 times in Bath 1 Buffer. Bath 1 Dye Solution was added, and the cells were incubated for 25 minutes at room temperature. Following dye incubation, cells were washed 3 times in Chloride Free Dye Solution. Chloride transport was initiated by addition of Chloride Free Dye Stimulation Solution and the fluorescence signal was read for 15 minutes. […] Chloride transport was then expressed as a percentage of the chloride transport following treatment with 3 μM N-[(6-amino-2-pyridyl)sulfonyl]-6-(3-fluoro-5-isobutoxy-phenyl)-2-[(4S)-2,2,4-trimethylpyrrolidin-1-yl]pyridine-3-carboxamide, 3 μM (R)-1-(2,2-difluorobenzo[d][1,3]dioxol-5-yl)-N-(1-(2,3-dihydroxypropyl)-6-fluoro-2-(1-hydroxy-2-methylpropan-2-yl)-1H-indol-5-yl)cyclopropanecarboxamide and 300 nM acute N-[2,4-bis(1,1-dimethylethyl)-5-hydroxyphenyl]-1,4-dihydro-4-oxoquinoline-3-carboxamide triple combination control (% Activity).
# CFTR-mediated chloride transport in human intestinal epithelial enteroid cells, sequence (P13569 with tags, fused parts or gaps DEL508-508): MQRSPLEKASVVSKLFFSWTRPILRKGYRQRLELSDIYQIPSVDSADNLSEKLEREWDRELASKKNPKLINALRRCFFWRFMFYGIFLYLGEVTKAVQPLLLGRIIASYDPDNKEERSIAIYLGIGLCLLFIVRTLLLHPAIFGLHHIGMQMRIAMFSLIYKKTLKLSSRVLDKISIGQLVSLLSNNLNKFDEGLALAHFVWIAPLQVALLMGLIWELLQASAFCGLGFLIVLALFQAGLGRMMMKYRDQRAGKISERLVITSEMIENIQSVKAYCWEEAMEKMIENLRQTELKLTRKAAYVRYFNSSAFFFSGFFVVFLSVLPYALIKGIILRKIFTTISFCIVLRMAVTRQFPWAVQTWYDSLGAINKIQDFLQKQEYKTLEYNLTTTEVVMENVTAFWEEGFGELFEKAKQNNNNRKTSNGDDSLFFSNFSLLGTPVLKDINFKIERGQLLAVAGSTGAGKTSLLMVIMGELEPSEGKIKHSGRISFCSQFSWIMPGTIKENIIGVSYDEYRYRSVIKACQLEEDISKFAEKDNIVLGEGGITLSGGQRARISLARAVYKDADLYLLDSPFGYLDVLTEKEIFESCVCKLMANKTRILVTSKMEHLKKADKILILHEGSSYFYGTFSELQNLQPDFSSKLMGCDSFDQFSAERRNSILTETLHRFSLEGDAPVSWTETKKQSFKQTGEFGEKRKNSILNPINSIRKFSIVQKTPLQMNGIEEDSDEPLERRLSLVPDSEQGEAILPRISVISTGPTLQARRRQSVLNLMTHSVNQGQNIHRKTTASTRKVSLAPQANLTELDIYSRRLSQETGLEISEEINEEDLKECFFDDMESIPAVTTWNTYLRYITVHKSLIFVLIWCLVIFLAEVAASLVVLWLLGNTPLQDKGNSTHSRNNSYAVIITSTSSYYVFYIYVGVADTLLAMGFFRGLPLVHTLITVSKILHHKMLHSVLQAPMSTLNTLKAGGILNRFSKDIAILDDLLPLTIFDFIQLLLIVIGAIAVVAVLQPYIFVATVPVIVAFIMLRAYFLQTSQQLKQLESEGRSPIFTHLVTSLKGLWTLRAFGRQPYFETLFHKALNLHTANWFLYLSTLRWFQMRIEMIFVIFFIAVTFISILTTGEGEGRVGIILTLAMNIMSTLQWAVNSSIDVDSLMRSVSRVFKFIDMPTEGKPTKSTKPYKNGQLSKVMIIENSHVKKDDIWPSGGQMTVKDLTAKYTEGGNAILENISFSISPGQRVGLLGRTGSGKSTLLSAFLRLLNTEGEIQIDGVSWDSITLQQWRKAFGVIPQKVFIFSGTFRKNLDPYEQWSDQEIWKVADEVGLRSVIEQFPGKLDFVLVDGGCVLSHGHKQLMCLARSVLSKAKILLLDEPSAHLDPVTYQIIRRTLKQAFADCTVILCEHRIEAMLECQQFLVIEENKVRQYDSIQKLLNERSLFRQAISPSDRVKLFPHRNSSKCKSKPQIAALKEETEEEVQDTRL
Structure (SMILES),EC50,Ent. A Max Activity (%)
"Cc1cccc(C)c1-c1cc2nc(n1)NS(=O)(=O)c1cccc(n1)NC(=O)[C@H]1C[C@H](CN(C(=O)OC(C)(C)C)C1)O2 (single isomer, unassigned) [Compound 17, tert-butyl 19-(2,6-dimethylphenyl)-8,15,15-trioxo-2-oxa-15λ^6-thia-5,9,16,18,21,22-hexaazatetracyclo[15.3.1.13,7.110,14]tricosa-1(21),10,12,14(22),17,19-hexaene-5-carboxylate]",,+ (+ is <30%)
"Cc1cccc(C)c1-c1cc2nc(n1)NS(=O)(=O)c1cccc(c1)NC(=O)C1CC(O2)C(C)(C)N(Cc2ccccc2)C1 (single isomer, unassigned) [Compound 73, 5-Benzyl-19-(2,6-dimethylphenyl)-4,4-dimethyl-2-oxa-15λ^6-thia-5,9,16,18,21-pentaazatetracyclo[15.3.1.13,7.110,14]tricosa-1(21),10,12,14(22),17,19-hexaene-8,15,15-trione]",< 1000 nM,+ (+ is <30%)
"Cc1cccc(C)c1-c1cc2nc(n1)NS(=O)(=O)c1cccc(c1)NC(=O)C1CC(O2)C(C)(C)N(Cc2ccccc2)C1 (single isomer, unassigned) [Compound 74, 5-benzyl-19-(2,6-dimethylphenyl)-4,4-dimethyl-2-oxa-15λ^6-thia-5,9,16,18,21-pentaazatetracyclo[15.3.1.13,7.110,14]tricosa-1(21),10,12,14(22),17,19-hexaene-8,15,15-trione]",,+ (+ is <30%)
"Cc1cccc(C)c1-c1cc2nc(n1)NS(=O)(=O)c1cccc(c1)NC(=O)[C@@H]1C[C@@H](CN(CC3C4(CC4)C34CC4)C1)O2 [Compound 6, (3S,7R)-19-(2,6-Dimethylphenyl)-5-({dispiro[2.0.24.13]heptan-7-yl}methyl)-2-oxa-15λ^6-thia-5,9,16,18,21-pentaazatetracyclo[15.3.1.13,7.110,14]tricosa-1(21),10(22),11,13,17,19-hexaene-8,15,15-trione]",< 1000 nM,+++ (+++ is >60%)
"Cc1cccc(C)c1-c1cc2nc(n1)NS(=O)(=O)c1cccc(c1)NC(=O)[C@@H]1C[C@@H](CN(Cc3ccccc3)C1)O2 [Compound 9, (3S,7R)-5-Benzyl-19-(2,6-dimethylphenyl)-2-oxa-15λ^6-thia-5,9,16,18,21-pentaazatetracyclo[15.3.1.13,7.110,14]tricosa-1(20),10,12,14(22),17(21),18-hexaene-8,15,15-trione]",< 1000 nM,+++ (+++ is >60%)
Cc1cccc(C)c1-c1cc2nc(n1)NS(=O)(=O)c1cccc(c1)NC(=O)[C@@H]1C[C@@H](CN(S(=O)(=O)CC(C)(C)C)C1)O2 [Compound 19],< 1000 nM,++ (++ is 30-60%)

# Now from value to molecule, other results behind:
EC50,Structure (SMILES),Ent. A Max Activity (%)
< 1000 nM,"Cc1cccc(C)c1-c1cc2nc(n1)NS(=O)(=O)c1cccc(n1)NC(=O)[C@@H]1C[C@@H](CN(C(=O)OC(C)(C)C)C1)O2 (single isomer, unassigned) [Compound 16, tert-Butyl 19-(2,6-dimethylphenyl)-8,15,15-trioxo-2-oxa-15λ^6-thia-5,9,16,18,21,22-hexaazatetracyclo[15.3.1.13,7.110,14]tricosa-1(21),10,12,14(22),17,19-hexaene-5-carboxylate]",+++ (+++ is >60%)
< 1000 nM,"Cc1cccc(C)c1-c1cc2nc(n1)NS(=O)(=O)c1cccc(n1)NC(=O)C1CC(CN(C(=O)OC(C)(C)C)C1)O2 (stereo not shown) [Compound 13, tert-Butyl 19-(2,6-dimethylphenyl)-8,15,15-trioxo-2-oxa-15λ^6-thia-5,9,16,18,21,22-hexaazatetracyclo[15.3.1.13,7.110,14]tricosa-1(21),10,12,14(22),17,19-hexaene-5-carboxylate]",+++ (+++ is >60%)
3000 to 30000 nM,Cc1cccc(C)c1-c1cc2nc(n1)NS(=O)(=O)c1cccc(n1)NC(=O)C1CC(CN(C(=O)OC(C)(C)C)C1)O2 (stereo not shown) [Compound 18],+++ (+++ is >60%)

# Reference: patent US20230416275A1, “MODULATORS OF CYSTIC FIBROSIS TRANSMEMBRANE CONDUCTANCE REGULATOR” (VERTEX PHARMACEUTICALS INCORPORATED, priority 2020, published 2023)
